Results as given in patent US20200016136A1 (VIIV HEALTHCARE UK (NO. 5) LIMITED, priority 2017, published 2020).

System: NL-RLuc virus (recombinant NL4-3 HIV with Renilla Luciferase gene)
Experiment: Inhibition of HIV replication (NL-RLuc virus in MT-2 cells, luciferase readout)
Format: cell-based, Human immunodeficiency virus (HIV)
Conditions: MT2, 120 h
Outline: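 MT-2 cells infected with NL4-3-derived virus carrying Renilla luciferase in place of part of nef, grown 5 days with serial compound dilutions in RPMI 1640/10% FBS. Virus growth read as luciferase expression. EC50 from median effect equation, at least 2 experiments.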

Row | SMILES | EC50
1 | Cc1nc(N2CCOCC2)cc(N2CCc3cc(-c4c(C)nc(C)c([C@H](OC(C)(C)C)C(=O)O)c4N4CCC(C)(C)CC4)ccc3C2)n1 [Example 64, (S)-2-(tert-Butoxy)-2-(4-(4,4-dimethylpiperidin-1-yl)-2,6-dimethyl-5-(2-(2-methyl-6-morpholinopyrimidin-4-yl)-1,2,3,4-tetrahydroisoquinolin-6-yl)pyridin-3-yl)acetic Acid] | 8 nM
2 | Cc1cccc(Cl)c1CN1CCc2cc(-c3c(CNCCCc4ccccc4)nc(C)c([C@H](OC(C)(C)C)C(=O)O)c3N3CCC(C)(C)CC3)ccc2C1 [Example 154, (S)-2-(tert-Butoxy)-2-(5-(2-(2-chloro-6-methylbenzyl)-1,2,3,4-tetrahydroisoquinolin-6-yl)-4-(4,4-dimethylpiperidin-1-yl)-2-methyl-6-(((3-phenylpropyl)amino)methyl)pyridin-3-yl)acetic Acid] | 97 nM
3 | Cc1nc(C)c([C@H](OC(C)(C)C)C(=O)O)c(N2CCC(C)(C)CC2)c1-c1ccc2c(c1)CCN(c1nccc(-c3ccccn3)n1)C2 [Example 109, (S)-2-(tert-Butoxy)-2-(4-(4,4-dimethylpiperidin-1-yl)-2,6-dimethyl-5-(2-(4-(pyridin-2-yl)pyrimidin-2-yl)-1,2,3,4-tetrahydroisoquinolin-6-yl)pyridin-3-yl)acetic Acid] | 1 nM
4 | Cc1cccc(Cl)c1CN1CCc2cc(-c3c(CO)nc(Cl)c([C@H](OC(C)(C)C)C(=O)O)c3N3CCC(C)(C)CC3)ccc2C1 [Example 97, (S)-2-(tert-Butoxy)-2-(2-chloro-5-(2-(2-chloro-6-methylbenzyl)-1,2,3,4-tetrahydroisoquinolin-6-yl)-4-(4,4-dimethylpiperidin-1-yl)-6-(hydroxymethyl)pyridin-3-yl)acetic Acid] | 2 nM
5 | Cc1nc(C)c([C@H](OC(C)(C)C)C(=O)O)c(N2CCC(C)(C)CC2)c1-c1ccc2c(c1)CCN(c1cc(C(=O)O)ncn1)C2 [Example 127, (S)-6-(6-(5-(tert-Butoxy(carboxy)methyl)-4-(4,4-dimethylpiperidin-1-yl)-2,6-dimethylpyridin-3-yl)-3,4-dihydroisoquinolin-2(1H)-yl)pyrimidine-4-carboxylic Acid] | 1280 nM
6 | Cc1nc(C)c([C@H](OC(C)(C)C)C(=O)O)c(N2CCC(C)(C)CC2)c1-c1ccc2c(c1)CCN(c1nccc(-c3cnccn3)n1)C2 [Example 108, (S)-2-(tert-Butoxy)-2-(4-(4,4-dimethylpiperidin-1-yl)-2,6-dimethyl-5-(2-(4-(pyrazin-2-yl)pyrimidin-2-yl)-1,2,3,4-tetrahydroisoquinolin-6-yl)pyridin-3-yl)acetic Acid] | 2 nM
7 | CCOc1cc(N2CCc3cc(-c4c(C)nc(C)c([C@H](OC(C)(C)C)C(=O)O)c4N4CCC(C)(C)CC4)ccc3C2)nc(C)n1 [Example 65, (S)-2-(tert-Butoxy)-2-(4-(4,4-dimethylpiperidin-1-yl)-5-(2-(6-ethoxy-2-methylpyrimidin-4-yl)-1,2,3,4-tetrahydroisoquinolin-6-yl)-2,6-dimethylpyridin-3-yl)acetic Acid] | 19 nM
8 | Cc1nc(C)c([C@H](OC(C)(C)C)C(=O)O)c(N2CCC(C)(C)CC2)c1-c1ccc2c(c1)CCN(c1ncnc(N3CCOCC3)c1C)C2 [Example 77, (S)-2-(tert-Butoxy)-2-(4-(4,4-dimethylpiperidin-1-yl)-2,6-dimethyl-5-(2-(5-methyl-6-morpholinopyrimidin-4-yl)-1,2,3,4-tetrahydroisoquinolin-6-yl)pyridin-3-yl)acetic Acid] | 0.6 nM
9 | Cc1nc(C)c([C@H](OC(C)(C)C)C(=O)O)c(N2CCC(C)(C)CC2)c1-c1ccc2c(c1)CCN(c1ncnc(N3CCOCC3)n1)C2 [Example 60, (S)-2-(tert-Butoxy)-2-(4-(4,4-dimethylpiperidin-1-yl)-2,6-dimethyl-5-(2-(4-morpholino-1,3,5-triazin-2-yl)-1,2,3,4-tetrahydroisoquinolin-6-yl)pyridin-3-yl)acetic Acid] | 0.6 nM
10 | Cc1nc(C)c([C@H](OC(C)(C)C)C(=O)O)c(N2CCC(C)(C)CC2)c1-c1ccc2c(c1)CCN(c1cc(N3CC(C)CC(C)C3)ncn1)C2 (stereo partly drawn) [Example 137, (2S)-2-(tert-Butoxy)-2-(4-(4,4-dimethylpiperidin-1-yl)-5-(2-(6-(3,5-dimethylpiperidin-1-yl)pyrimidin-4-yl)-1,2,3,4-tetrahydroisoquinolin-6-yl)-2,6-dimethylpyridin-3-yl)acetic Acid] | 7 nM
11 | Cc1nc(C)c([C@H](OC(C)(C)C)C(=O)O)c(N2CCC(C)(C)CC2)c1-c1ccc2c(c1)CCN(c1ccnc(N3C4COCC3COC4)n1)C2 [Example 34, (2S)-2-(tert-Butoxy)-2-[4-(4,4-dimethylpiperidin-1-yl)-5-[2-(2-{3,7-dioxa-9-azabicyclo[3.3.1]nonan-9-yl}pyrimidin-4-yl)-1,2,3,4-tetrahydroisoquinolin-6-yl]-2,6-dimethylpyridin-3-yl]acetic Acid] | 5 nM
12 | Cc1nc(C)c([C@H](OC(C)(C)C)C(=O)O)c(N2CCC(C)(C)CC2)c1-c1ccc2c(c1)CCN(c1ccnc(N3C4CCCC3COC4)n1)C2 [Example 36, (2S)-2-(tert-Butoxy)-2-[4-(4,4-dimethylpiperidin-1-yl)-2,6-dimethyl-5-[2-(2-{3-oxa-9-azabicyclo[3.3.1]nonan-9-yl}pyrimidin-4-yl)-1,2,3,4-tetrahydroisoquinolin-6-yl]pyridin-3-yl]acetic Acid] | 3 nM
13 | Cc1nc(C)c([C@H](OC(C)(C)C)C(=O)O)c(N2CCC(C)(C)CC2)c1-c1ccc2c(c1)CCN(c1cccc(C(=O)O)n1)C2 [Example 142, (S)-6-(6-(5-(tert-Butoxy(carboxy)methyl)-4-(4,4-dimethylpiperidin-1-yl)-2,6-dimethylpyridin-3-yl)-3,4-dihydroisoquinolin-2(1H)-yl)picolinic Acid] | 381 nM
14 | Cc1nc(C)c([C@H](OC(C)(C)C)C(=O)O)c(N2CCC(C)(C)CC2)c1-c1ccc2c(c1)CCN(c1ccnc(N3C4CCC3COC4)n1)C2 [Example 31, (2S)-2-(tert-Butoxy)-2-[4-(4,4-dimethylpiperidin-1-yl)-2,6-dimethyl-5-[2-(2-{3-oxa-8-azabicyclo[3.2.1]octan-8-yl}pyrimidin-4-yl)-1,2,3,4-tetrahydroisoquinolin-6-yl]pyridin-3-yl]acetic Acid] | 2 nM
15 | CC1(C)CCN(Cc2nc(Cl)c([C@H](OC(C)(C)C)C(=O)O)c(N3CCC(C)(C)CC3)c2-c2ccc3c(c2)CCN(c2ncnc4c2oc2ccccc24)C3)CC1 [Example 96, (S)-2-(5-(2-(Benzofuro[3,2-d]pyrimidin-4-yl)-1,2,3,4-tetrahydroisoquinolin-6-yl)-2-chloro-4-(4,4-dimethylpiperidin-1-yl)-6-((4,4-dimethylpiperidin-1-yl)methyl)pyridin-3-yl)-2-(tert-butoxy)acetic Acid] | 0.3 nM
16 | Cc1cccc(Cl)c1CN1CCc2cc(-c3c(NC4CCN(C)CC4)nc(C)c([C@H](OC(C)(C)C)C(=O)O)c3N3CCC(C)(C)CC3)ccc2C1 [Example 8, (S)-2-(tert-Butoxy)-2-(5-(2-(2-chloro-6-methylbenzyl)-1,2,3,4-tetrahydroisoquinolin-6-yl)-4-(4,4-dimethylpiperidin-1-yl)-2-methyl-6-((1-methylpiperidin-4-yl)amino)pyridin-3-yl)acetic Acid] | 2 nM
17 | Cc1nc(C)c([C@H](OC(C)(C)C)C(=O)O)c(N2CCC(C)(C)CC2)c1-c1ccc2c(c1)CCN(c1nccc(N3CCC(C(C)(C)O)CC3)n1)C2 [Example 70, (S)-2-(tert-Butoxy)-2-(4-(4,4-dimethylpiperidin-1-yl)-5-(2-(4-(4-(2-hydroxypropan-2-yl)piperidin-1-yl)pyrimidin-2-yl)-1,2,3,4-tetrahydroisoquinolin-6-yl)-2,6-dimethylpyridin-3-yl)acetic Acid] | 5 nM
18 | CC1(C)CCN(c2c(-c3ccc4c(c3)CCN(c3ncnc5c3oc3ncccc35)C4)c(CN3CCC4(CCC4)CC3)nc(Cl)c2[C@H](OC(C)(C)C)C(=O)O)CC1 [Example 152, (S)-2-(6-((7-Azaspiro[3.5]nonan-7-yl)methyl)-2-chloro-4-(4,4-dimethylpiperidin-1-yl)-5-(2-(pyrido[3′,2′:4,5]furo[3,2-d]pyrimidin-4-yl)-1,2,3,4-tetrahydroisoquinolin-6-yl)pyridin-3-yl)-2-(tert-butoxy)acetic Acid] | 0.1 nM
19 | Cc1cccc(Cl)c1CN1CCc2cc(-c3c(NCCCN4CCCCC4)nc(C)c([C@H](OC(C)(C)C)C(=O)O)c3N3CCC(C)(C)CC3)ccc2C1 [Example 10, (S)-2-(tert-Butoxy)-2-(5-(2-(2-chloro-6-methylbenzyl)-1,2,3,4-tetrahydroisoquinolin-6-yl)-4-(4,4-dimethylpiperidin-1-yl)-2-methyl-6-((3-(piperidin-1-yl)propyl)amino)pyridin-3-yl)acetic Acid] | 2 nM
20 | Cc1cccc(Cl)c1CN1CCc2cc(-c3c(CN(C)CC4CCOCC4)nc(Cl)c([C@H](OC(C)(C)C)C(=O)O)c3N3CCC(C)(C)CC3)ccc2C1 [Example 98, (S)-2-(tert-Butoxy)-2-(2-chloro-5-(2-(2-chloro-6-methylbenzyl)-1,2,3,4-tetrahydroisoquinolin-6-yl)-4-(4,4-dimethylpiperidin-1-yl)-6-((methyl((tetrahydro-2H-pyran-4-yl)methyl)amino)methyl)pyridin-3-yl)acetic Acid] | 0.7 nM
21 | Cc1cccc(Cl)c1CN1CCc2cc(-c3c(CNCCCCCc4ccccc4)nc(C)c([C@H](OC(C)(C)C)C(=O)O)c3N3CCC(C)(C)CC3)ccc2C1 [Example 156, (S)-2-(tert-Butoxy)-2-(5-(2-(2-chloro-6-methylbenzyl)-1,2,3,4-tetrahydroisoquinolin-6-yl)-4-(4,4-dimethylpiperidin-1-yl)-2-methyl-6-(((5-phenylpentyl)amino)methyl)pyridin-3-yl)acetic Acid] | 65 nM
22 | Cc1nc(C)c([C@H](OC(C)(C)C)C(=O)O)c(N2CCC(C)(C)CC2)c1-c1ccc2c(c1)CCN(c1cncc(N3CCOCC3)n1)C2 [Example 74, (S)-2-(tert-Butoxy)-2-(4-(4,4-dimethylpiperidin-1-yl)-2,6-dimethyl-5-(2-(6-morpholinopyrazin-2-yl)-1,2,3,4-tetrahydroisoquinolin-6-yl)pyridin-3-yl)acetic Acid] | 1 nM
